The record followed here is patent EP1183044B1, “ADJUVANT COMBINATIONS FOR IMMUNIZATION AND VACCINES” (priority 1999, dated 2000).

Read-outs that look alike come from different tables or passages of the source.

The subject of this assay is M.tuberculosis (Erdman). It is filed as in vivo. Particulars: ESAT-6 10 µg/dose three times.

For `CCCCCCCCCCCCCCCCCC[N+](C)(C)CCCCCCCCCCCCCCCCCC.[Br-]` [DDA, dimethyl dioctadecyl ammonium bromide], for the setting “[…]”, the “Log10 resistance Lung, Experiment I” value is reported as below 0.05 log10 and the “Log10 resistance Spleen, Experiment I” value is given as below 0.05 log10.

Take monophosphoryl lipid A [MPL]: the “Log10 resistance Lung, Experiment I” value (log10 reduction of bacterial load in lung 6 weeks after aerosol challenge) was below 0.05 log10. The “Log10 resistance Spleen, Experiment I” value (log10 reduction of bacterial load in spleen 6 weeks after aerosol challenge) was below 0.05 log10.
